Experiment [1] deals with GC rich DNA. Kind of experiment: Displacement of Ethidium bromide from native ds-GC12 short DNA (unknown origin) by Stern-Volmer quenching plot analysis. The class given is nucleic-acid assay.
Experiment [2] concerns DNA. Kind of experiment: Induction of GC-rich pYUB12 plasmid DNA (unknown origin) unwinding assessed as DNA structural changes at DNA base-pair to compound ratio of 1:6 incubated for 16 hrs by mobility shift assay. The class given is nucleic-acid assay.
The test system of experiment [3] is GC rich DNA. Kind of experiment: Disruption of native ds-GC12 DNA (unknown origin) base stacking interaction assessed as decrease in positive peak intensity at 283 nm at DNA base-pair to compound ratio of 1:4 by circular dichroism analysis. The class given is nucleic-acid assay. In general terms: Circular dichroism is the unequal absorption of left and right circularly polarised light.

Experiment [4] concerns GC rich DNA. Kind of experiment: Disruption of native ds-GC12 DNA (unknown origin) base stacking interaction assessed as appearance of ICD at 320 to 330 nm by circular dichroism analysis. The class given is nucleic-acid assay.
Experiment [5] concerns GC rich DNA. Kind of experiment: Disruption of native ds-GC12 DNA (unknown origin) base stacking interaction assessed as decrease in positive peak intensity at 283 nm by circular dichroism analysis. The class given is nucleic-acid assay.
In experiment [6] the test system is DNA. As to the kind of experiment: Induction of GC-rich pYUB12 plasmid DNA (unknown origin) unwinding assessed as complete conformational change as condensed form at DNA base-pair to compound ratio of 1:2 incubated for 16 hrs by mobility shift assay. The format is nucleic-acid assay.
A short description of experiment [7]: Induction of histone eviction from single assembled nucleosome (unknown origin) assessed as reduction in nucleosome band intensity at 75 uM incubated for 4 hrs by silver staining based gel electrophoresis assay.
Experiment [8] relates to DNA. As to the kind of experiment: Induction of GC-rich pYUB12 plasmid DNA (unknown origin) unwinding assessed as complete structural change with DNA condensation by measuring increase in condensed DNA band intensity at DNA base-pair to compound ratio of 1:1.5 incubated for 16 hrs by mobility shift assay. The format is nucleic-acid assay.
For experiment [9], the system named is GC rich DNA. Kind of experiment: Disruption of native ds-GC12 DNA (unknown origin) base stacking interaction assessed as appearance of ICD at 325 nm by circular dichroism analysis. The class given is nucleic-acid assay.
In another experiment the test system is HCT-116. Kind of experiment: Cytotoxicity against human HCT-116 cells assessed as reduction in cell viability incubated for 24 hrs by MTT assay. The class given is functional, cell-based. Conditions: HCT-116, 24 h. (In general: Tetrazolium assays rely on reduction of a dye to a coloured formazan, in cell work by metabolically active cells.)
Experiment [10] relates to GC rich DNA. Kind of experiment: Disruption of native ds-GC12 DNA (unknown origin) base stacking interaction assessed as DNA structural changes by circular dichroism analysis. The class given is nucleic-acid assay.
Experiment [11] concerns Calf thymus DNA. Kind of experiment: Binding affinity to calf thymus DNA assessed as change in entropy by isothermal titration calorimetry. The class given is nucleic-acid assay. To be noted: Bos taurus. Background: ITC needs no label: the signal is the heat of the interaction.
The test system of experiment [12] is Calf thymus DNA. Kind of experiment: Binding affinity to calf thymus DNA assessed as change in enthalpy by isothermal titration calorimetry. To be noted: Bos taurus. The format is nucleic-acid assay.
Experiment [13] concerns DNA. As to the kind of experiment: Induction of GC-rich pYUB12 plasmid DNA (unknown origin) unwinding assessed as DNA structural changes at DNA base-pair to compound ratio of 1:4 incubated for 16 hrs by mobility shift assay. The format is nucleic-acid assay.
For experiment [14], the system named is Calf thymus DNA. As to the kind of experiment: Binding affinity to calf thymus DNA by isothermal titration calorimetry. Conditions: Bos taurus. The format is nucleic-acid assay.
Experiment [15] deals with Calf thymus DNA. As to the kind of experiment: Binding affinity to calf thymus DNA assessed as change in free energy by isothermal titration calorimetry. The format is nucleic-acid assay. Conditions: Bos taurus.
For experiment [16], the system named is GC rich DNA. Kind of experiment: Disruption of native ds-GC12 DNA (unknown origin) base stacking interaction assessed as DNA structural changes at DNA base-pair to compound ratio of 1:4 by circular dichroism analysis. The class given is nucleic-acid assay.

Calls of active or inactive are those of the source. No cut-off for these calls is given here. Some results are limits rather than exact numbers.

With `CN(C)CCCNc1nc2cc([N+](=O)[O-])ccc2nc1NCc1ccc(N)cc1`, the KSV in the experiment on GC rich DNA [1] is < 1 10^4/M. The result in the experiment with DNA [2] and in the experiment on GC rich DNA [3] was Active.

As to `CN(C)CCCNc1nc2cc([N+](=O)[O-])ccc2nc1NCc1ccc(F)cc1`, the KSV in the experiment on GC rich DNA [1] is 1.26 10^4/M. In addition, the outcome in the experiment on GC rich DNA [3] was Active.

As to `CN(C)CCCNc1nc2cc([N+](=O)[O-])ccc2nc1NCc1ccccc1`, the KSV in the experiment with GC rich DNA [1] was < 1 10^4/M. Moreover, the result with DNA [2] and in the experiment with GC rich DNA [3] was Active.

Take `CN(C)CCCNc1nc2cc([N+](=O)[O-])ccc2nc1NCc1ccncc1`: the KSV with GC rich DNA [1] is < 0.3 10^4/M.

`CN(C)CCCNc1nc2cc([N+](=O)[O-])ccc2nc1NCc1ccc(Br)cc1`: in the experiment with GC rich DNA [1], the KSV is 2.8 10^4/M. The outcome with DNA [2], with GC rich DNA [4], with GC rich DNA [5] and in the experiment with DNA [6] was Active.

For the compound `CN(C)CCCNc1nc2cc([N+](=O)[O-])ccc2nc1NCc1ccc(C(F)(F)F)cc1`, in the experiment with GC rich DNA [1], the KSV was 4.6 10^4/M. For the same compound, the outcome (in experiment [7]; in the experiment on DNA [8]; with GC rich DNA [9]; with DNA [6]) was Active.

As a reminder, the IC50 is the concentration needed to halve the response being measured. With `O=[N+]([O-])c1ccc2nc(NCc3ccccc3)c(N3CCCCC3)nc2c1`, in the experiment on GC rich DNA [1], the KSV was 0.19 10^4/M. In the experiment with HCT-116, the 50% inhibitory concentration (IC50) is > 50 µM.

With `Cc1ccc(CNc2nc3ccc([N+](=O)[O-])cc3nc2NCCCN(C)C)cc1`, in the experiment on GC rich DNA [1], the KSV was 1.7 10^4/M. Besides, the result in the experiment with GC rich DNA [10] and in the experiment with DNA [13] was Active. Further, the TdeltaS in the experiment on Calf thymus DNA [11] stood at 5.34 kcal/mol. In addition, the deltaH with Calf thymus DNA [12] was -1.86 kcal/mol. For the same compound, the Ka in the experiment on Calf thymus DNA [14] is 1.54 10^5/M. For the same compound, the deltaG in the experiment on Calf thymus DNA [15] was -7.2 kcal/mol.

Turning to `CN(C)CCCNc1nc2cc([N+](=O)[O-])ccc2nc1NCc1ccc(Cl)cc1`, the KSV with GC rich DNA [1] was 2.4 10^4/M. For the same compound, the result in the experiment on GC rich DNA [4], in the experiment on GC rich DNA [5] and in the experiment on DNA [13] was Active.

For the compound `COc1ccc(CNc2nc3ccc([N+](=O)[O-])cc3nc2NCCCN(C)C)cc1`, in the experiment with GC rich DNA [1], the KSV was < 1 10^4/M. In addition, the outcome in the experiment with DNA [2] and in the experiment with GC rich DNA [3] was Active.

Consider `CN(C)CCCNc1nc2cc([N+](=O)[O-])ccc2nc1NCc1ccc(O)cc1`, for which, in the experiment on GC rich DNA [1], the KSV is < 1 10^4/M. Also, the result in the experiment with DNA [2] and in the experiment on GC rich DNA [3] was Active. In the experiment on Calf thymus DNA [11], the TdeltaS came out at 4.88 kcal/mol. The deltaH with Calf thymus DNA [12] is -1.5 kcal/mol. Further, the Ka in the experiment with Calf thymus DNA [14] is 3.96 10^4/M. Moreover, the deltaG with Calf thymus DNA [15] is -6.38 kcal/mol.

Turning to `CN(C)CCCNc1nc2cc([N+](=O)[O-])ccc2nc1NCc1ccco1`, in the experiment with GC rich DNA [1], the KSV is < 0.3 10^4/M.

As for `CN(C)CCCNc1nc2cc([N+](=O)[O-])ccc2nc1NCc1ccc([N+](=O)[O-])cc1`, the KSV in the experiment with GC rich DNA [1] was < 1 10^4/M. In addition, the result with DNA [2] and in the experiment with GC rich DNA [3] was Active.

On to `CN(C)CCCNc1nc2cc([N+](=O)[O-])ccc2nc1NCc1cccs1`, for which the KSV in the experiment on GC rich DNA [1] was < 0.3 10^4/M. Besides, the outcome in the experiment on GC rich DNA [16] was Active.

For the compound `CN(C)CCCNc1nc2cc([N+](=O)[O-])ccc2nc1NCc1ccc(C#N)cc1`, the KSV in the experiment with GC rich DNA [1] was < 1 10^4/M. The result with DNA [2] was Active.

Values taken from ChEMBL document CHEMBL5154651, “Substituent effect of benzyl moiety in nitroquinoxaline small molecules upon DNA binding: Cumulative destacking of DNA nucleobases leading to histone eviction” (Eur J Med Chem, 2022).
